{"source": "the NIST ThermoML archive (doi:10.1021/je700371w)", "conditions": "Liquid, Closed cell (Static) method", "note": "± gives the expanded uncertainty stated by the source."}
{"smiles": "Cc1cccnc1N", "note": "[2-amino-3-methylpyridine]", "values": [{"measurement": "vapor or sublimation pressure", "setting": "328.7 K", "result": "0.098 ± 0.006", "unit": "kPa"}, {"measurement": "vapor or sublimation pressure", "setting": "329.84 K", "result": "0.108 ± 0.006", "unit": "kPa"}, {"measurement": "vapor or sublimation pressure", "setting": "336.23 K", "result": "0.165 ± 0.006", "unit": "kPa"}, {"measurement": "vapor or sublimation pressure", "setting": "344.13 K", "result": "0.271 ± 0.007", "unit": "kPa"}, {"measurement": "vapor or sublimation pressure", "setting": "349.18 K", "result": "0.368 ± 0.007", "unit": "kPa"}, {"measurement": "vapor or sublimation pressure", "setting": "354.89 K", "result": "0.515 ± 0.008", "unit": "kPa"}, {"measurement": "vapor or sublimation pressure", "setting": "357.64 K", "result": "0.598 ± 0.009", "unit": "kPa"}, {"measurement": "vapor or sublimation pressure", "setting": "359.93 K", "result": "0.69 ± 0.06", "unit": "kPa"}, {"measurement": "vapor or sublimation pressure", "setting": "363.55 K", "result": "0.82 ± 0.06", "unit": "kPa"}, {"measurement": "vapor or sublimation pressure", "setting": "368.61 K", "result": "1.08 ± 0.06", "unit": "kPa"}, {"measurement": "vapor or sublimation pressure", "setting": "374.67 K", "result": "1.47 ± 0.06", "unit": "kPa"}, {"measurement": "vapor or sublimation pressure", "setting": "387.23 K", "result": "2.67 ± 0.06", "unit": "kPa"}, {"measurement": "vapor or sublimation pressure", "setting": "390.85 K", "result": "3.13 ± 0.06", "unit": "kPa"}, {"measurement": "vapor or sublimation pressure", "setting": "398.46 K", "result": "4.32 ± 0.06", "unit": "kPa"}, {"measurement": "vapor or sublimation pressure", "setting": "405.57 K", "result": "5.82 ± 0.07", "unit": "kPa"}, {"measurement": "vapor or sublimation pressure", "setting": "411.35 K", "result": "7.34 ± 0.07", "unit": "kPa"}, {"measurement": "vapor or sublimation pressure", "setting": "415.63 K", "result": "8.67 ± 0.07", "unit": "kPa"}, {"measurement": "vapor or sublimation pressure", "setting": "421.5 K", "result": "10.75 ± 0.08", "unit": "kPa"}, {"measurement": "vapor or sublimation pressure", "setting": "425.85 K", "result": "12.61 ± 0.08", "unit": "kPa"}, {"measurement": "vapor or sublimation pressure", "setting": "428.75 K", "result": "13.95 ± 0.08", "unit": "kPa"}, {"measurement": "vapor or sublimation pressure", "setting": "431.43 K", "result": "15.29 ± 0.09", "unit": "kPa"}, {"measurement": "vapor or sublimation pressure", "setting": "435.66 K", "result": "17.74 ± 0.09", "unit": "kPa"}, {"measurement": "vapor or sublimation pressure", "setting": "439.42 K", "result": "20.12 ± 0.1", "unit": "kPa"}, {"measurement": "vapor or sublimation pressure", "setting": "443.51 K", "result": "23.01 ± 0.1", "unit": "kPa"}, {"measurement": "vapor or sublimation pressure", "setting": "447.94 K", "result": "26.5 ± 0.11", "unit": "kPa"}, {"measurement": "vapor or sublimation pressure", "setting": "448.95 K", "result": "27.3 ± 0.11", "unit": "kPa"}, {"measurement": "vapor or sublimation pressure", "setting": "450.76 K", "result": "28.88 ± 0.12", "unit": "kPa"}, {"measurement": "vapor or sublimation pressure", "setting": "451.84 K", "result": "29.81 ± 0.12", "unit": "kPa"}, {"measurement": "vapor or sublimation pressure", "setting": "454.19 K", "result": "32.09 ± 0.13", "unit": "kPa"}, {"measurement": "vapor or sublimation pressure", "setting": "455.25 K", "result": "33.15 ± 0.13", "unit": "kPa"}, {"measurement": "vapor or sublimation pressure", "setting": "456.78 K", "result": "34.61 ± 0.14", "unit": "kPa"}, {"measurement": "vapor or sublimation pressure", "setting": "457.95 K", "result": "36.08 ± 0.14", "unit": "kPa"}, {"measurement": "vapor or sublimation pressure", "setting": "460.15 K", "result": "38.48 ± 0.14", "unit": "kPa"}, {"measurement": "vapor or sublimation pressure", "setting": "461.72 K", "result": "40.22 ± 0.14", "unit": "kPa"}, {"measurement": "vapor or sublimation pressure", "setting": "469.63 K", "result": "50.38 ± 0.18", "unit": "kPa"}, {"measurement": "vapor or sublimation pressure", "setting": "478.22 K", "result": "63.87 ± 0.21", "unit": "kPa"}, {"measurement": "vapor or sublimation pressure", "setting": "484.84 K", "result": "76.42 ± 0.24", "unit": "kPa"}, {"measurement": "vapor or sublimation pressure", "setting": "490.45 K", "result": "87.65 ± 0.27", "unit": "kPa"}, {"measurement": "vapor or sublimation pressure", "setting": "495.13 K", "result": "99.74 ± 0.25", "unit": "kPa"}, {"measurement": "vapor or sublimation pressure", "setting": "496.05 K", "result": "101.44 ± 0.28", "unit": "kPa"}, {"measurement": "vapor or sublimation pressure", "setting": "497.73 K", "result": "105.38 ± 0.31", "unit": "kPa"}, {"measurement": "vapor or sublimation pressure", "setting": "498.8 K", "result": "108.53 ± 0.33", "unit": "kPa"}, {"measurement": "vapor or sublimation pressure", "setting": "499.88 K", "result": "111.35 ± 0.32", "unit": "kPa"}]}
{"smiles": "O", "note": "[water]", "values": [{"measurement": "vapor or sublimation pressure", "setting": "297.95 K", "result": "3.14 ± 0.07", "unit": "kPa"}, {"measurement": "vapor or sublimation pressure", "setting": "303.85 K", "result": "4.41 ± 0.07", "unit": "kPa"}, {"measurement": "vapor or sublimation pressure", "setting": "309.05 K", "result": "5.93 ± 0.07", "unit": "kPa"}, {"measurement": "vapor or sublimation pressure", "setting": "313.25 K", "result": "7.44 ± 0.08", "unit": "kPa"}, {"measurement": "vapor or sublimation pressure", "setting": "318.75 K", "result": "9.86 ± 0.08", "unit": "kPa"}, {"measurement": "vapor or sublimation pressure", "setting": "322.95 K", "result": "12.2 ± 0.09", "unit": "kPa"}, {"measurement": "vapor or sublimation pressure", "setting": "329.35 K", "result": "16.71 ± 0.1", "unit": "kPa"}, {"measurement": "vapor or sublimation pressure", "setting": "333.45 K", "result": "20.18 ± 0.12", "unit": "kPa"}, {"measurement": "vapor or sublimation pressure", "setting": "338.55 K", "result": "25.51 ± 0.14", "unit": "kPa"}, {"measurement": "vapor or sublimation pressure", "setting": "342.85 K", "result": "30.8 ± 0.16", "unit": "kPa"}, {"measurement": "vapor or sublimation pressure", "setting": "348.25 K", "result": "38.66 ± 0.19", "unit": "kPa"}, {"measurement": "vapor or sublimation pressure", "setting": "353.65 K", "result": "48.42 ± 0.22", "unit": "kPa"}, {"measurement": "vapor or sublimation pressure", "setting": "358.35 K", "result": "58.2 ± 0.26", "unit": "kPa"}, {"measurement": "vapor or sublimation pressure", "setting": "362.95 K", "result": "69.67 ± 0.3", "unit": "kPa"}, {"measurement": "vapor or sublimation pressure", "setting": "368.45 K", "result": "85.35 ± 0.34", "unit": "kPa"}, {"measurement": "vapor or sublimation pressure", "setting": "371.75 K", "result": "96.28 ± 0.38", "unit": "kPa"}, {"measurement": "vapor or sublimation pressure", "setting": "373.25 K", "result": "101.56 ± 0.42", "unit": "kPa"}, {"measurement": "vapor or sublimation pressure", "setting": "375.75 K", "result": "111.23 ± 0.44", "unit": "kPa"}]}
